Reference: publication PMC5736936, “Xylopine Induces Oxidative Stress and Causes G2/M Phase Arrest, Triggering Caspase-Mediated Apoptosis by p53-Independent Pathway in HCT116 Cells” (Oxidative Medicine and Cellular Longevity, 2017)
Where two headings read alike, the source gives them in different places.

Tests used:
HCT116 cells = format: cell-based, human
Procedure: Cells were harvested in a permeabilization solution containing 0.1% Triton X-100 (Sigma Chemical Co., St Louis, MO, USA), 2 μg/mL propidium iodide (Sigma Chemical Co.), 0.1% sodium citrate, and 100 μg/mL RNAse (Sigma Chemical Co.) and incubated in the dark for 15 min at room temperature. Finally, cell fluorescence was measured by flow cytometry on a BD LSRFortessa cytometer using the BD FACSDiva software (BD Biosciences) and FlowJo software 10 (FlowJo, LCC, Ashland, OR, USA).

[1] = tested on: cancer multicellular spheroids formed from HCT116 cells; test: 3D multicellular spheroids culture, alamarBlue assay, 72 h; format: cell-based, human
Procedure: HCT116 cells were cultivated in three-dimensional (3D) multicellular spheroids. Briefly, 100 μL of a solution of cells (0.5 × 10^6 cells/mL) was inserted in 96-well plates with a cell-repellent surface (Greiner Bio-One, Kremsmünster, Austria) and cultured in complete medium plus 3% Matrigel (BD Biosciences, San Jose, CA, USA). Spheroids with stable structures had formed after three days. Then, the spheroids were exposed to a range of drug concentrations for 72 h, after which the cell viability was quantified by alamarBlue assay as described above.

[2] = tested on: HepG2 (human hepatocellular carcinoma); test: Cytotoxic activity, alamarBlue assay, 72 h; format: cell-based
Source text: (§1) MCF7 (human breast carcinoma), HCT116 (human colon carcinoma), HepG2 (human hepatocellular carcinoma), SCC-9 (human oral squamous cell carcinoma), HSC-3 (human oral squamous cell carcinoma), HL-60 (human promyelocytic leukemia), K-562 (human chronic myelogenous leukemia), B16-F10 (murine melanoma), MRC-5 (human lung fibroblast), WT SV40 MEF (wild-type immortalized mouse embryonic fibroblast), and BAD KO SV40 MEF (BAD gene knockout immortalized mouse embryonic fibroblast) cell lines were obtained from the American Type Culture Collection (ATCC, Manassas, VA, USA). Cells were cultured in complete medium with appropriate supplements as recommended by ATCC. All cell lines were tested for mycoplasma using the Mycoplasma Stain Kit (Sigma-Aldrich) to validate the use of cells free from contamination. Primary cell culture of peripheral blood mononuclear cells (PBMC) was obtained by standard Ficoll density protocol. The Research Ethics Committee of the Oswaldo Cruz Foundation (Salvador, BA, Brazil) approved the experimental protocol (number 031019/2013). Cell viability was examined using trypan blue exclusion assay for all experiments.
(§2) Cell viability was quantified using the alamarBlue assay according to Ahmed et al.. Cells were inserted in 96-well plates for all experiments (7 × 10^4 cells/mL for adherent cells or 3 × 10^5 cells/mL for suspended cells in 100 μL of medium). After 24 h, xylopine was dissolved in dimethyl sulfoxide (DMSO) and added to each well and incubated for 72 h. […] Four (for cell lines) or 24 h (for PBMCs) before the end of incubation, 20 μL of a stock solution (0.312 mg/mL) of the alamarBlue (resazurin, Sigma-Aldrich Co., Saint Louis, MO, USA) was added to each well. Absorbance at 570 nm and 600 nm was measured using the SpectraMax 190 Microplate Reader (Molecular Devices, Sunnyvale, CA, USA), and the drug effect was quantified as the percentage of control absorbance.

[3] = tested on: SCC9 (human oral squamous cell carcinoma); test: Cytotoxic activity, alamarBlue assay, 72 h; format: cell-based
Source text: as §1, §2

[4] = tested on: K562 (human chronic myelogenous leukemia); test: Cytotoxic activity, alamarBlue assay, 72 h; format: cell-based;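 on Selectivity index: SI is noncancer IC50 (MRC-5 or PBMC) divided by cancer cell IC50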
Source text: as §1, §2

[5] = tested on: B16-F10 (murine melanoma); test: Cytotoxic activity, alamarBlue assay, 72 h; format: cell-based
Source text: as §1, §2

[6] = tested on: HL-60 (human promyelocytic leukemia); test: Cytotoxic activity, alamarBlue assay, 72 h; format: cell-based;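 on Selectivity index: SI is noncancer IC50 (MRC-5 or PBMC) divided by cancer cell IC50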
Source text: as §1, §2

[7] = tested on: HSC3 (human oral squamous cell carcinoma); test: Cytotoxic activity, alamarBlue assay, 72 h; format: cell-based
Source text: as §1, §2

[8] = tested on: HCT116 (human colon carcinoma); test: Cytotoxic activity, alamarBlue assay, 72 h; format: cell-based;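 on Selectivity index: SI is noncancer IC50 (MRC-5 or PBMC) divided by cancer cell IC50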
Source text: as §1, §2

[9] = tested on: MCF7 (human breast carcinoma); test: Cytotoxic activity, alamarBlue assay, 72 h; format: cell-based;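 on Selectivity index: SI is noncancer IC50 (MRC-5 or PBMC) divided by cancer cell IC50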
Source text: as §1, §2

calf thymus DNA (ctDNA) = test: DNA intercalation assay (ethidium bromide displacement); format: binding; conditions: 10 or 20 μM xylopine, 15 μg/mL ctDNA, 1.5 μM ethidium bromide
Procedure: DNA intercalation was assessed by examining the ability of xylopine to displace ethidium bromide from calf thymus DNA (ctDNA, Sigma-Aldrich Co.). The assay was conducted in 96-well plates and contained 15 μg/mL ctDNA, 1.5 μM ethidium bromide, and 10 or 20 μM xylopine in 100 μL saline solution. […] Fluorescence was measured using excitation and emission wavelengths of 320 and 600 nm, respectively.

[10] = HCT116, XYL 3.5 μM, 24 h incubation
[11] = HCT116, XYL 3.5 μM, 48 h incubation
[12] = HCT116, XYL 7 μM, 24 h incubation
[13] = HCT116, XYL 7 μM, 48 h incubation
[14] = HCT116, XYL 14 μM, 24 h incubation
[15] = HCT116, XYL 14 μM, 48 h incubation

For `COc1ccc2c(c1)C[C@@H]1NCCc3cc4c(c-2c31)OCO4` [XYL, xylopine], which “DNA content (%) G0/G1” value (HCT116 cells; [10]) is on record?
Its value is 17.0 ± 7.0^∗ %.

And the “DNA content (%) G2/M” value (HCT116 cells; [10])?
The value was 57.2 ± 3.5^∗ %.

And the “DNA content (%) S” value (HCT116 cells; [10])?
Its value is 24.7 ± 4.8%.

And the “DNA content (%) Sub-G0/G1” value (HCT116 cells; [10])?
The value was 6.2 ± 1.9%.

What about the “DNA content (%) G2/M” value (HCT116 cells; HCT116, XYL 3.5 μM, 24 h incubation, listed as xylopine) of the same compound?
The value was 57.2%.

And the “DNA content (%) G0/G1” value (HCT116 cells; [11])?
Its value is 17.0 ± 6.3^∗ %.

What about the “DNA content (%) G2/M” value (HCT116 cells; [11]) of the same compound?
Its value is 52.0 ± 6.8^∗ %.

And the “DNA content (%) S” value (HCT116 cells; [11])?
Its value is 11.1 ± 2.2%.

What about the “DNA content (%) Sub-G0/G1” value (HCT116 cells; [11]) of the same compound?
The value was 15.2 ± 1.9%.

What about the “DNA content (%) G2/M” value (HCT116 cells; HCT116, XYL 3.5 μM, 48 h incubation, listed as xylopine) of the same compound?
Its value is 52.0%.

What about the “DNA content (%) G0/G1” value (HCT116 cells; [12]) of the same compound?
The value was 14.9 ± 4.2^∗ %.

And the “DNA content (%) G2/M” value (HCT116 cells; [12])?
The value was 58.5 ± 2.9^∗ %.

And the “DNA content (%) S” value (HCT116 cells; [12])?
The value was 23.3 ± 3.7%.

And the “DNA content (%) Sub-G0/G1” value (HCT116 cells; [12])?
Its value is 5.1 ± 1.6%.

And the “DNA content (%) G2/M” value (HCT116 cells; HCT116, XYL 7 μM, 24 h incubation, listed as xylopine)?
The value was 58.5%.

What about the “DNA content (%) G0/G1” value (HCT116 cells; [13]) of the same compound?
Its value is 10.3 ± 1.3^∗ %.

And the “DNA content (%) G2/M” value (HCT116 cells; [13])?
The value was 52.7 ± 3.6^∗ %.

And the “DNA content (%) S” value (HCT116 cells; [13])?
Its value is 6.8 ± 2.0%.

And the “DNA content (%) Sub-G0/G1” value (HCT116 cells; [13])?
The value was 25.9 ± 2.5^∗ %.

What about the “DNA content (%) G2/M” value (HCT116 cells; HCT116, XYL 7 μM, 48 h incubation, listed as xylopine) of the same compound?
The value was 52.7%.

What about the “DNA content (%) G0/G1” value (HCT116 cells; [14]) of the same compound?
Its value is 30.5 ± 6.0%.

What about the “DNA content (%) G2/M” value (HCT116 cells; [14]) of the same compound?
Its value is 54.0 ± 6.1^∗ %.

And the “DNA content (%) S” value (HCT116 cells; [14])?
The value was 11.1 ± 1.6%.

And the “DNA content (%) Sub-G0/G1” value (HCT116 cells; [14])?
The value was 11.3 ± 1.4%.

And the “DNA content (%) G2/M” value (HCT116 cells; HCT116, XYL 14 μM, 24 h incubation, listed as xylopine)?
The value was 54.0%.

And the “DNA content (%) G0/G1” value (HCT116 cells; [15])?
Its value is 14.6 ± 2.6^∗ %.

And the “DNA content (%) G2/M” value (HCT116 cells; [15])?
The value was 40.8 ± 5.7^∗ %.

And the “DNA content (%) S” value (HCT116 cells; [15])?
Its value is 9.3 ± 1.7%.

What about the “DNA content (%) Sub-G0/G1” value (HCT116 cells; [15]) of the same compound?
The value was 33.4 ± 6.2^∗ %.

What about the “DNA content (%) G2/M” value (HCT116 cells; HCT116, XYL 14 μM, 48 h incubation, listed as xylopine) of the same compound?
The value was 40.8%.

What about the morphology of spheroids ([1]; 3D spheroids of HCT116, light microscopy) of the same compound?
Its morphology of spheroids is “morphological alterations that indicate drug permeability and cytotoxicity in the 3D culture”.

What about the IC50 ([1]; Homo sapiens, HCT-116, 3D spheroids of HCT116, alamarBlue, 72 h) of the same compound?
The IC50 was 24.6 µM.

And the IC50 ([2]; Homo sapiens, HepG2, alamarBlue, 72 h)?
Its IC50 is 9.4 µM.

And the Selectivity index ([2]; IC50(MRC5)/IC50(HepG2))?
Its Selectivity index is 2.6.

And the Selectivity index ([2]; IC50(PBMC)/IC50(HepG2))?
Its Selectivity index is 2.

And the IC50 ([3]; Homo sapiens, SCC-9, SCC9, alamarBlue, 72 h)?
Its IC50 is 26.6 µM.

What about the Selectivity index ([3]; IC50(MRC5)/IC50(SCC-9)) of the same compound?
Its Selectivity index is 0.9.

And the Selectivity index ([3]; IC50(PBMC)/IC50(SCC-9))?
Its Selectivity index is 0.7.

And the IC50 ([4]; Homo sapiens, K562, alamarBlue, 72 h)?
Its IC50 is 7.8 µM.

And the Selectivity index ([4]; IC50(MRC5)/IC50(K-562))?
The Selectivity index was 3.1.

What about the Selectivity index ([4]; IC50(PBMC)/IC50(K-562)) of the same compound?
The Selectivity index was 2.4.

And the Selectivity index ([5]; IC50(MRC5)/IC50(B16-F10))?
The Selectivity index was 2.5.

What about the Selectivity index ([5]; IC50(PBMC)/IC50(B16-F10)) of the same compound?
Its Selectivity index is 1.9.

And the IC50 ([5]; Mus musculus, B16-F10, alamarBlue, 72 h)?
Its IC50 is 9.6 µM.

And the IC50 ([6]; Homo sapiens, HL-60, alamarBlue, 72 h)?
Its IC50 is 18.5 µM.

What about the Selectivity index ([6]; IC50(MRC5)/IC50(HL-60)) of the same compound?
Its Selectivity index is 1.3.

What about the Selectivity index ([6]; IC50(PBMC)/IC50(HL-60)) of the same compound?
Its Selectivity index is 1.

And the IC50 ([7]; Homo sapiens, HSC-3, HSC3, alamarBlue, 72 h)?
Its IC50 is 15.7 µM.

And the Selectivity index ([7]; IC50(MRC5)/IC50(HSC-3))?
The Selectivity index was 1.5.

What about the Selectivity index ([7]; IC50(PBMC)/IC50(HSC-3)) of the same compound?
Its Selectivity index is 1.2.

And the IC50 ([8]; Homo sapiens, HCT-116, HCT116, alamarBlue, 72 h)?
The IC50 was 6.4 µM.

What about the Selectivity index ([8]; IC50(MRC5)/IC50(HCT116)) of the same compound?
The Selectivity index was 3.8.

And the Selectivity index ([8]; IC50(PBMC)/IC50(HCT116))?
Its Selectivity index is 2.9.

And the IC50 ([9]; Homo sapiens, MCF7, alamarBlue, 72 h)?
Its IC50 is 12 µM.

And the Selectivity index ([9]; IC50(MRC5)/IC50(MCF7))?
The Selectivity index was 2.

And the Selectivity index ([9]; IC50(PBMC)/IC50(MCF7))?
Its Selectivity index is 1.5.

And the “displacement of ethidium bromide from ctDNA (fluorescence intensity)” value (calf thymus DNA (ctDNA))?
Its value is “not able to decrease the ethidium bromide fluorescence”.
